Calls of active or inactive are those of the source. How the calls were made is not given here. Where a SMILES comes first, the peptide text is derived from it. Where only a bound is given, the exact number is not on record here.

For the assay, the system named is ADSC/ECFC co-culture, VEGF-stimulated, CD31 tube area. The experiment in a line: inhibition of endothelial tube formation, dose response, imaging, VEGF stimulation, CD31 staining, tube area, IC50 (AID 1117337).
Turning to `O=C(Nc1ccc(Oc2ccc(Cl)cc2)c(Cl)c1)c1cc(I)cc(I)c1O`, the IC50 (in general, the midpoint of a concentration-inhibition curve) is > 10 µM (inactive). For `Cc1nc(Nc2ncc(C(=O)Nc3c(C)cccc3Cl)s2)cc(N2CCN(CCO)CC2)n1`, the IC50 was > 10 µM (inactive).

Turning to `O=C1NCN(c2ccccc2)C12CCN(CCCC(c1ccc(F)cc1)c1ccc(F)cc1)CC2`, the IC50 was > 10 µM (inactive). Turning to `CCCn1cnc2c1c(=O)n(CCCCC(C)=O)c(=O)n2C`, the IC50 is > 10 µM (inactive). Under `CCC1=C[C@@H]2CN(C1)Cc1c([nH]c3ccccc13)[C@@](C(=O)OC)(c1cc3c(cc1OC)N(C)[C@H]1[C@@](O)(C(=O)OC)[C@H](OC(C)=O)[C@]4(CC)C=CCN5CC[C@]31[C@@H]54)C2` stands 0.0055 µM; under `CCCOc1ccc2nc(NC(=O)OC)[nH]c2c1`, 0.328 µM. Then `O=S(c1cc(Cl)cc(Cl)c1O)c1cc(Cl)cc(Cl)c1O`, with > 10 µM (inactive); and `CO[C@H]1O[C@@H]2O[C@@]3(C)CC[C@H]4[C@H](C)CC[C@@H]([C@@H]1C)[C@@]24OO3`, with > 10 µM (inactive); and `CCCCN1CCCC1C(=O)Nc1c(C)cc(C)cc1C` (stereo unspecified), with > 10 µM (inactive).

In the case of `CC(=O)Oc1ccccc1C(=O)Nc1ncc([N+](=O)[O-])s1`, the IC50 is 2.06 µM. For the compound `N/C(=N\N=C\c1ccc(Cl)cc1)N/N=C/c1ccc(Cl)cc1`, the IC50 was > 10 µM (inactive). In the case of `CCOP(=S)(OCC)SCSc1ccc(Cl)cc1`, the IC50 is > 10 µM (inactive).

For the compound `O=C(NC(=O)c1c(F)cccc1F)Nc1ccc(Cl)c(Oc2ncc(C(F)(F)F)cc2Cl)c1`, the IC50 is > 10 µM (inactive). Under `CC(C)=CCNc1ncnc2c1ncn2[C@@H]1O[C@H](CO)[C@@H](O)[C@H]1O` stands 2.66 µM; under `Cc1c(C)c2c(c(C)c1OC(=O)CCC(=O)O)CC[C@@](C)(CCC[C@H](C)CCC[C@H](C)CCCC(C)C)O2`, > 10 µM (inactive). Regarding `CCCCC1C(=O)N(c2ccccc2)N(c2ccc(O)cc2)C1=O` (stereo unspecified), the 50% inhibitory concentration (IC50) is 3.29 µM. Take `C[C@@H](O[C@H]1OCCN(Cc2n[nH]c(=O)[nH]2)[C@H]1c1ccc(F)cc1)c1cc(C(F)(F)F)cc(C(F)(F)F)c1`: the IC50 was 6.89 µM (inactive).

Turning to `CNC(=O)Oc1cccc2ccccc12`, the IC50 is > 10 µM (inactive). Then `CN1CC[C@H](c2c(O)cc(O)c3c(=O)cc(-c4ccccc4Cl)oc23)[C@H](O)C1`, with 0.114 µM; and `O=c1[nH]c(=O)n([C@H]2C[C@H](O)[C@@H](CO)O2)cc1I`, with 0.681 µM; and `CC(=O)Oc1ccc(C2(c3ccc(OC(C)=O)cc3)C(=O)Nc3ccccc32)cc1`, with > 10 µM (inactive). `Cc1c(O)cccc1C(=O)N[C@@H](CSc1ccccc1)[C@H](O)CN1C[C@H]2CCCC[C@H]2C[C@H]1C(=O)NC(C)(C)C`: the IC50 is > 10 µM (inactive). Under `C[C@@H]1C[C@H]2[C@@H]3CCC4=CC(=O)C=C[C@]4(C)[C@@]3(Cl)[C@@H](O)C[C@]2(C)[C@@]1(OC(=O)c1ccco1)C(=O)CCl` stands 4.99 µM; under `C[C@@H]1C[C@@H]([C@H](O)CC2CC(=O)NC(=O)C2)C(=O)[C@@H](C)C1`, 1.15 µM. Then `CCOC(=O)C1=C[C@]2(CC)CCCN3CCc4c(n1c1ccccc41)[C@@H]32`, with > 10 µM (inactive); and `CCCCc1oc2ccc(NS(C)(=O)=O)cc2c1C(=O)c1ccc(OCCCN(CCCC)CCCC)cc1`, with 2.75 µM; and `CCc1oc2ccccc2c1C(=O)c1cc(Br)c(O)c(Br)c1`, with > 10 µM (inactive). Under `O=C(Nc1ccc(Br)cc1)c1cc(Br)c(Br)s1` stands > 10 µM (inactive). As to `Oc1c(Cl)cc(Cl)c2cccnc12`, the half-maximal inhibitory concentration (IC50) is 2 µM. Regarding `Cc1ccc2nc(N)[nH]c(=O)c2c1Sc1ccncc1`, the IC50 is 7.37 µM (inactive). Then `S=c1nc[nH]c2nc[nH]c12`, with 0.915 µM. Under `CCC(C(=O)OCCOCCN(CC)CC)c1ccccc1` (stereo unspecified) stands > 10 µM (inactive); under `COC(=O)CCCCC(CCSS/C(CCO)=C(\C)N(C=O)Cc1cnc(C)nc1N)SC(C)=O` (stereo unspecified), > 10 µM (inactive).

Consider `CCCOC(=O)c1cc(O)c(O)c(O)c1`, for which the IC50 was > 10 µM (inactive). For `O=C(O)c1ccc2[nH]cc(CCCCN3CC=C(c4ccccc4)CC3)c2c1`, the IC50 is > 10 µM (inactive). Then `CC(C)c1c(C(=O)Nc2ccccc2)c(-c2ccccc2)c(-c2ccc(F)cc2)n1CC[C@@H](O)C[C@@H](O)CC(=O)O`, with > 10 µM (inactive); and `C[S+](CC[C@H](N)C(=O)O)C[C@H]1O[C@@H](n2cnc3c(N)ncnc32)[C@H](O)[C@H]1O` (stereo partly specified), with > 10 µM (inactive); and `CC(C)=CCCC(C)=CCCC(C)=CCCC=C(C)CCC=C(C)CCC=C(C)C`, with > 10 µM (inactive).

Take `O=C(NC1CCN(CCc2c[nH]c3ccccc23)CC1)c1ccccc1`: the IC50 is > 10 µM (inactive). Under `S=C=Nc1ccc(N=C=S)cc1` stands > 10 µM (inactive); under `CCCCCCCC(=O)OCC(COC(=O)CCCCCCC)OC(=O)CCCCCCC`, > 10 µM (inactive).

In the case of `Clc1ccc(C(Cn2ccnc2)OCc2ccc(Sc3ccccc3)cc2)c(Cl)c1` (stereo unspecified), the IC50 is > 10 µM (inactive). In the case of `CS(=O)(=O)CCNCc1ccc(-c2ccc3ncnc(Nc4ccc(OCc5cccc(F)c5)c(Cl)c4)c3c2)o1`, the IC50 is > 10 µM (inactive). Under `COc1cc(C=C2CCC/C(=C\c3ccc(O)c(OC)c3)C2=O)ccc1O` stands > 10 µM (inactive); under `COc1ccc(/C=C/C(=O)c2ccc(OC)cc2OC)cc1`, 6.66 µM (inactive); under `CC1=C(/C=C/C(C)=C/C=C/C(C)=C/C(=O)Nc2ccc(O)cc2)C(C)(C)CCC1`, 1.34 µM.

Turning to `COC1=C(OC)C(=O)C(CCCCCCCCCCO)=C(C)C1=O`, the IC50 was > 10 µM (inactive). Under `C#C[C@]1(O)CC[C@H]2[C@@H]3CCc4cc(O)ccc4[C@H]3CC[C@@]21C` stands > 10 µM (inactive); under `C#C[C@]1(O)CC[C@@H]2[C@@H]3CCC4=CCCC[C@@H]4[C@H]3C(=C)C[C@@]21CC`, > 10 µM (inactive). Then `CCCCCCCCCCCCCCCCNc1ccc(C(=O)O)cc1`, with 0.367 µM; and `CCCCCCCCCCCCCCCC[N+](C)(C)Cc1ccccc1`, with 2.53 µM; and `NC(=NCCCCCCN=C(N)/N=C(\N)Nc1ccc(Cl)cc1)/N=C(\N)Nc1ccc(Cl)cc1`, with 1.35 µM.

Take `COc1cccc2c1C(=O)c1c(O)c3c(c(O)c1C2=O)C[C@@](O)(C(=O)CO)C[C@@H]3O[C@H]1C[C@H](N)[C@H](O[C@@H]2CCCCO2)[C@H](C)O1`: the 50% inhibitory concentration (IC50) was 0.0063 µM. As for `CC(=O)O[C@@]12CO[C@@H]1C[C@H](O)[C@@]1(C)C(=O)[C@H](O)C3=C(C)[C@@H](OC(=O)[C@H](O)[C@@H](NC(=O)OC(C)(C)C)c4ccccc4)C[C@@](O)([C@@H](OC(=O)c4ccccc4)[C@H]21)C3(C)C`, the IC50 is 0.001 µM.

`COc1ccc([C@@H]2Sc3ccccc3NC(=O)[C@@H]2O)cc1`: the IC50 was > 10 µM (inactive). Consider `Oc1cc(Cl)ccc1Oc1ccc(Cl)cc1Cl`, for which the IC50 was > 10 µM (inactive). For `CC(C)(C)C(=O)OCOP(=O)(COCCn1cnc2c(N)ncnc21)OCOC(=O)C(C)(C)C`, the IC50 is 0.391 µM. Under `NC(=O)[C@@H]1CSSCCC(=O)N[C@@H](CCCCN=C(N)N)C(=O)NCC(=O)N[C@@H](CC(=O)O)C(=O)N[C@@H](Cc2c[nH]c3ccccc23)C(=O)N2CCC[C@H]2C(=O)N1` (HELM PEPTIDE1{[O=C(CCS[*:3])[*:2]].[N=C(N)NCCCC[C@H](N[*:1])C(=O)[*:2]].G.D.W.P.C.[am]}$PEPTIDE1,PEPTIDE1,1:R3-7:R3$$$V2.0) stands > 10 µM (inactive).

Regarding `NC(=O)c1cccnc1`, the IC50 is > 10 µM (inactive). For the compound `COc1cc([C@@H]2c3cc4c(cc3[C@@H](O[C@@H]3O[C@@H]5CO[C@@H](C)O[C@@H]5[C@H](O)[C@@H]3O)[C@H]3COC(=O)[C@H]23)OCO4)cc(OC)c1O`, the IC50 was 0.109 µM. Turning to `Cc1ccc(Nc2c(F)cccc2Cl)c(CC(=O)O)c1`, the IC50 is > 10 µM (inactive).

Take `O=C1c2ccccc2C(=O)C1C(=O)C(c1ccccc1)c1ccccc1`: the IC50 was > 10 µM (inactive). Turning to `O=C1CC[C@H](C(=O)N2CCCCC2)N1`, the IC50 is > 10 µM (inactive). Under `Oc1ccc(Cl)cc1Sc1cc(Cl)ccc1O` stands 3.53 µM; under `O=NN(CCCl)C(=O)NC1CCCCC1`, > 10 µM (inactive).

As for `O=C1c2c(O)cccc2Cc2cccc(O)c21`, the 50% inhibitory concentration (IC50) was 0.604 µM. As for `Cc1ccc2c(Br)cc(Br)c(O)c2n1`, the IC50 is > 10 µM (inactive).

As to `O=C(CBr)Nc1ccc(Cl)cc1C(=O)c1ccccc1F`, the IC50 is > 10 µM (inactive). Turning to `O=c1c(-c2ccccc2)c1-c1ccccc1`, the IC50 is 3.84 µM.

As for `COc1cccc2c1C(=O)c1c(O)c3c(c(O)c1C2=O)C[C@@](O)(C(=O)CO)CC3OC1CC(N2CCOC(OC)C2)C(O)C(C)O1` (stereo partly specified), the IC50 is 0.003 µM. Then `NC1=NCC2c3ccccc3Cc3ccccc3N12` (stereo unspecified), with > 10 µM (inactive).

Turning to `CCCCCCCCCCCCCCCC[N+](C)(C)CCN(Cc1ccc(OC)cc1)c1ncccn1`, the IC50 was 3.07 µM. For the compound `O[C@@H](c1cc(C(F)(F)F)nc2c(C(F)(F)F)cccc12)[C@H]1CCCCN1`, the IC50 is > 10 µM (inactive).

Regarding `O=C(CCBr)N1CCN(C(=O)CCBr)CC1`, the half-maximal inhibitory concentration (IC50) was 1.37 µM. As to `CC(C)=CCC/C(C)=C/CC/C(C)=C/C(=O)OCC(=O)[C@@]1(O)CC[C@H]2[C@@H]3CCC4=CC(=O)C=C[C@]4(C)[C@H]3[C@@H](O)C[C@@]21C`, the IC50 is 3.34 µM.

As for `CC(CC=O)CCCC(C)(C)O` (stereo unspecified), the IC50 is > 10 µM (inactive). For the compound `CCCCC(CC)COC(=O)CC(C(=O)OCC(CC)CCCC)S(=O)(=O)O` (stereo unspecified), the IC50 was > 10 µM (inactive).

As for `Oc1c(Cl)cc(Cl)cc1Sc1cc(Cl)cc(Cl)c1O`, the IC50 was 1.79 µM. `O=C(O)c1ccc(-n2nc(-c3ccccc3O)nc2-c2ccccc2O)cc1`: the concentration for half-maximal inhibition (IC50) is 2.09 µM. As for `COc1ccccc1OCCNCC(O)COc1cccc2[nH]c3ccccc3c12` (stereo unspecified), the IC50 is > 10 µM (inactive). Then `O=C(Nc1ccc([N+](=O)[O-])cc1)Nc1ccc([N+](=O)[O-])cc1`, with > 10 µM (inactive).

Values taken from PubChem BioAssay AID1117337 (Cheminformatics & Chemogenomics Research Group (CCRG), …, 2015).
